# From patent US5358936A, “Anionic furanose derivatives, methods of making and using the same” (Gordon; Paul, priority 1991, dated 1994)
# Values joined by “and” are separate entries in the source; they are usually repeats but may differ in a detail not shown here. Equal values may be shown once. Where a name gives a salt, the structure may show the parent alone.
# Assays:
# [1] = tested on: stomach ulcers; experiment: Gastric ulcers in rats with corona virus infection treated with indomethacin (Example 26); type: in vivo, rat
# Text: Corona virus is a non-lethal upper respiratory viral pathogen that not infrequently infects rat colonies. It is a type of rodent coryza or catarrh, the equivalent of a disease that falls somewhere between human influenza and a severe common cold. The animals of this study suffered from this condition, a circumstance which was evident by observation, and which was confirmed by virological diagnosis at the Biological Resources Laboratory of the University of Illinois at Chicago. Since stress is a common component of peptic ulcer development in both animals and man, it was concluded that this feature of the status of these experimental animals rendered them appropriate for an ulcer study.
# In this study, animals were not food deprived and were divided into treatment groups such that 15 rats received 30 mg/kg indomethacin alone (in water by oral gavage), 14 rats received indomethacin plus an injection of 25 mg/kg cimetidine subcutaneously, and 7 rats received indomethacin plus subcutaneous injection of 17.5 mg/kg of Compound III.
# All animals were sacrificed by ether euthanasia 24 hours later and their stomachs evaluated for ulcer pathology. In this study ulcers were not hemorrhagic. Results are shown below as the average number of stomach ulcers per stomach.
# [2] = tested on: peritoneal neutrophils; experiment: In vitro neutrophil chemotaxis toward zymosan-activated rat serum (Example 24); type: cell-based, mouse; conditions: for Percent Inhibition of chemotaxis: tripotassium salt
# In short: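 Peritoneal neutrophils (>90%) from mice 24 h after CFA injection; 1×10^5 cells placed above an 8 μm filter, with 20% zymosan-activated rat serum in RPMI 1640/10% FCS below. Incubated 6 h at 37 °C; Giemsa-stained cells on the filter underside counted, in duplicate. ID50 is the concentration inhibiting chemotaxis by 50%.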
# [3] = tested on: myeloperoxidase (MPO); neutrophil infiltration; experiment: Myeloperoxidase (MPO) accumulation in ZAS-swollen footpads (Example 23); type: in vivo, rat; conditions: ZAS alone 94.42 ± 12.81, normal 11.67 ± 1.87, P < 0.01
# Protocol: (§1) The relationship of neutrophil infiltration to ZAS-induced swelling, and its drug-inhibition, was evaluated in another study. In this study, all procedures employing ZAS and Compound III were carried out as above, except that, Compound III was administered 45 minutes before ZAS, and standardized samples of the swollen footpads were removed and subjected to analysis for myeloperoxidase activity (MPO), according to the method of Lundberg et al., Inflammation, 7:247, (1983). MPO is a neutrophil-specificenzyme, and its assay is the most widely used method of identifying the degree of neutrophil participation in organ pathology.
# [4] = tested on: mouse blood coagulation; experiment: Blood coagulation, in vitro clotting time (Example 31 A); conditions: 10 μg/ml in normal saline
# Protocol: To assess the effect on coagulation, if any, of a compound of the invention, a comparative evaluation was made using mouse blood.
# One ml of freshly drawn mouse blood was added to each tube, and the tube contents were mixed. The clotting time was then noted for each tube, and the results are as shown below:
# [5] = Chronic toxicity in C57 Black mice by drinking water (Example 29 B); type: in vivo; conditions: 28 days, average daily dose 175 mg/kg
# Protocol: However, eight mice were treated with Compound III by drinking water, for a period of 28 days. During this time, the average daily dose consumed was 175 mg/kg.
# [6] = tested on: mouse paw; experiment: Mouse paw edema provoked by neutral proteases (Example 32); type: in vivo; conditions: two hours; SOD 150 units IV; Compound III 50 mg/kg IP and IV; SOD P<0.05, Compound III P<0.01
# Protocol: Both tryptic activity and collagenase activity are components of the tissue-injuring neutral proteinase activities secreted by neutrophils. Collagenase activity has also been associated with injury to cartilage; and, in another context, with the micro-injury to blood vessels that permits the extravasation and metastasis of, and by, tumor cells.
# The effects of Compound III on rat and mouse paw edema as provoked by injection of these enzymes were evaluated. SOD injected IV and Compound III injected IP and IV at zero time, (as in Example 25), inhibited edema at two hours by from 33-40 percent, in both species. […] Both drug effects were significant by t test, SOD at P<0.05 and Compound III at P<0.01.
# [7] = tested on: rat hind paws; experiment: Paw swelling provoked by zymosan-activated serum or normal serum (Example 23); type: in vivo; conditions: for Paw Swelling, ZAS (MPO study): 45 minutes before ZAS, ZAS alone 34.58 ± 2.45; for Paw Swelling, ZAS (MPO study) / Paw Swelling, ZAS: P < 0.01; for Swelling Change, ZAS / Swelling Change, normal serum (NS): 50 mg/kg oral
# Protocol: For the present studies, zymosan-activated serum (ZAS) was made by incubating reconstituted lyophilized rat serum with 10 mg/ml zymosan A for one hour at 37° C., and then microfiltering to remove the zymosan.
# In the first study, distilled water vehicle or 50 mg/kg Compound III in water were given by oral gavage to 9 control and 9 drug-treated adult male rats, respectively, and 90 minutes later the dorsoventral diameter of the hind feet were determined by Schnelltaster caliper. Sera [0.1 ml ZAS or 0.1 ml normal serum (NS)] were thereafter injected into opposite hind paws of the same rat under ether anesthesia. Below are given the paw swellings that developed at 2 and 3 hours, in response to ZAS and to normal serum, in the absence and presence of drug treatment. Data are reported previously.
# as §1
structure (smiles),measurement,setting,value
"CC1(C)O[C@H]2O[C@H]([C@@H](COS(=O)(=O)O)OS(=O)(=O)O)[C@H](OS(=O)(=O)O)[C@H]2O1 [Compound III, 1,2-O-(2-Propylidene)-3,5,6-tri-O-sulfo-α-D-glucofuranose, tripotassium salt]","ulcer reduction compared with cimetidine, in words",[1]; 17.5 mg/kg Compound III vs 25 mg/kg cimetidine,greater using Compound III than cimetidine
same,Percent Inhibition of ulcer frequency,"[1]; indomethacin 30 mg/kg oral, cimetidine 25 mg/kg s.c. or Compound III 17.5 mg/kg s.c.",66%
same,"Ulcer Frequency per stomach, Mn ± SE","[1]; indomethacin 30 mg/kg oral, cimetidine 25 mg/kg s.c. or Compound III 17.5 mg/kg s.c. where given, P<0.02",0.86 ± 0.46 Per Stomach
same,times as potent as ibuprofen and prednisone in chemotaxis inhibition,[2],100-1000 times
same,IC50,"[2]; Mus musculus, Neutrophil, 6 h, 20 percent zymosan-activated rat serum, six hours, 37° C., read-out: ID50 (molar concentration that inhibited chemotaxis by 50 percent)",200 nM
same,inhibition at 0.01 µg/mL,"[2]; Mus musculus, Neutrophil, dose 0.01 μg/ml, read-out: Percent Inhibition of chemotaxis",1.5%
same,inhibition at 100 µg/mL,"[2]; Mus musculus, Neutrophil, dose 100.0 μg/ml, read-out: Percent Inhibition of chemotaxis",68%
same,inhibition at 200 µg/mL,"[2]; Mus musculus, Neutrophil, dose 200.0 μg/ml, read-out: Percent Inhibition of chemotaxis",60%
same,Percent Inhibition of chemotaxis,[2]; dose 1.0 μg/ml,69.0% and 65.0% and 90.0% and 88.5% and 77.0% and 63.5% and 70.0%
same,Percent Inhibition of chemotaxis,[2]; dose 10.0 μg/ml,87.0% and 76.0% and 92.5% and 97.5% and 74.5%
same,Percent Inhibition of chemotaxis,[2]; dose 100.0 μg/ml,80.5%
same,"relative activity in inhibiting neutrophil chemotaxis, in words",[2]; in vitro,more active than any of the other assayed compounds
same,MPO,"[3]; 17 mg/kg, n = 6",32.17 ± 2.83 Rel. Units
same,MPO,"[3]; 50 mg/kg, n = 12",41.67 ± 8.93 Rel. Units
same,"Clotting time, individual mouse","[4]; control 2.0-6.0, tripotassium salt",2.0 min and 1.0 min and 4.0 min
same,Average clotting time,"[4]; control 4.33 ± 1.20, P<0.001",2.0 ± 0.71 min
same,body weight and appearance at termination versus controls,[5],"weighed as much as the controls, and looked sleeker"
same,inhibition of edema,[6],33-40%
same,"Paw Swelling, ZAS (MPO study)","[7]; 17 mg/kg, n = 6",16.83 ± 2.12 0.1 mm
same,"Paw Swelling, ZAS (MPO study)","[7]; 50 mg/kg, n = 12",15.25 ± 3.99 0.1 mm
same,"Paw Swelling, ZAS","[7]; 2 hours post-ZAS, 50 mg/kg oral gavage 90 minutes before, control 27.22 ± 1.97",10.78 ± 1.94 0.1 mm
same,"Swelling Change, ZAS",[7]; 2 hours,-60%
same,"Swelling Change, normal serum (NS)",[7]; 2 hours,-32%
same,"Paw Swelling, normal serum (NS)","[7]; 2 hours, 50 mg/kg oral gavage, control 11.22 ± 1.28",7.67 ± 1.41 0.1 mm
same,"Paw Swelling, ZAS","[7]; 3 hours post-ZAS, 50 mg/kg oral gavage, control 28.89 ± 2.48",16.11 ± 2.94 0.1 mm
same,"Swelling Change, ZAS",[7]; 3 hours,-44%
same,"Swelling Change, normal serum (NS)",[7]; 3 hours,-17%
same,"Paw Swelling, normal serum (NS)","[7]; 3 hours, 50 mg/kg oral gavage, control 11.44 ± 1.55",9.44 ± 1.28 0.1 mm
